Test results from publication PMC11089511 (Journal of Medicinal Chemistry, 2024).
Values belong to the compound of their own block, whether it stands above or below them.

How the values were obtained:
[1] = cited from earlier work
[2] = cited from earlier work; remark: listed apart in the source
[3] = cited from earlier work; remark: listed apart in the source
[4] = molecular target: wild-type TTR in human plasma (Homo sapiens, UniProt P02766); test: Ex vivo competitive binding assay using a fluorogenic probe in human plasma; settings: for binding to TTR in human plasma (probe fluorescence intensity), in words: 6 h of incubation, Figure 3 / Figures S2–S4

fluorescence intensity of the probe relative to the control (DMSO) ([4]; compound 20 μM, human plasma with 5 μM TTR, Figure 2): approximately 30%
SMILES: CCc1oc2ccccc2c1C(=O)c1cc(I)c(O)c(I)c1 [Compound 3, benziodarone]

binding to TTR in human plasma (probe fluorescence intensity), in words [4]: weaker binding compared to 3
SMILES: CCc1sc2ccccc2c1C(=O)c1cc(I)c(O)c(I)c1 [Compound 14, (2-Ethylbenzo[b]thien-3-yl)(4-hydroxy-3,5-diiodophenyl)methanone]

binding to TTR in human plasma (probe fluorescence intensity), in words [4]: remarkably reduced compared to that of 7
SMILES: CCc1oc2ccc(Cl)c(Cl)c2c1C(=O)c1cc(I)c(O)c(I)c1 [Compound 18, (4,5-Dichloro-2-ethylbenzofuran-3-yl)(4-hydroxy-3,5-diiodophenyl)methanone]

More lines, now with the values behind:

SMILES: O=C(O)c1ccc2nc(-c3cc(Cl)cc(Cl)c3)oc2c1 [Compound 1, Tafamidis]
aqueous solubility pH 6.8 [1]: >100 μM
hepatic microsome stability in rats [2]: 38.7 mL/min/kg
PAMPA permeability [3]: >50 ×10^–6 cm/s

SMILES: CCc1oc2c(Cl)c(Cl)ccc2c1C(=O)c1cc(I)c(O)c(I)c1 [Compound 19, (6,7-Dichloro-2-ethylbenzofuran-3-yl)(4-hydroxy-3,5-diiodophenyl)methanone]
binding to TTR in human plasma (probe fluorescence intensity), in words [4]: remarkably reduced compared to that of 7
